Experiment: xn = mol fraction of the nth substance listed
Conditions: 101.3 kPa, Liquid; for speed of sound: Sing-around technique in a fixed-path interferometer

CCOC(C)(C)C [2-ethoxy-2-methylpropane] + CCc1ccccc1
Conditions | mass density, 288.15 K [kg/m3] | mass density, 298.15 K [kg/m3] | mass density, 323.15 K [kg/m3] | speed of sound, 288.15 K [m/s] | speed of sound, 298.15 K [m/s] | speed of sound, 323.15 K [m/s]
x1 = 0.062 | 862.801 | 854.066 | 831.864 | 1341.6 | 1298.5 | 1195.2
x1 = 0.122 | 855.221 | 846.39 | 823.917 | 1324.4 | 1281 | 1177.2
x1 = 0.239 | 840.448 | 831.434 | 808.496 | 1291.1 | 1247.3 | 1142.5
x1 = 0.353 | 826.071 | 816.917 | 793.606 | 1258.9 | 1214.8 | 1109
x1 = 0.455 | 813.347 | 804.045 | 780.291 | 1230.1 | 1185.7 | 1079
x1 = 0.556 | 800.809 | 791.351 | 767.168 | 1201.7 | 1157.1 | 1049.8
x1 = 0.653 | 788.72 | 779.094 | 754.45 | 1174.2 | 1129.3 | 1021.4
x1 = 0.746 | 777.039 | 767.306 | 742.327 | 1148.3 | 1103.2 | 994.59
x1 = 0.834 | 765.895 | 756.026 | 730.658 | 1123.2 | 1077.9 | 968.81
x1 = 0.918 | 755.524 | 745.492 | 719.646 | 1099.7 | 1054 | 944.36
x1 = 0.959 | 750.111 | 740.037 | 714.068 | 1088 | 1042.2 | 932.2
x1 = 1 | 744.955 | 734.806 | 708.642 | 1076.4 | 1031 | 920.73
